Target: T1, PTP1B (Homo sapiens, UniProt P18031, C32S/C92V/K197C)
T1 construct: gene PTPN1; residues 1–321
T1 sequence (P18031 1-321 C32S/C92V/K197C): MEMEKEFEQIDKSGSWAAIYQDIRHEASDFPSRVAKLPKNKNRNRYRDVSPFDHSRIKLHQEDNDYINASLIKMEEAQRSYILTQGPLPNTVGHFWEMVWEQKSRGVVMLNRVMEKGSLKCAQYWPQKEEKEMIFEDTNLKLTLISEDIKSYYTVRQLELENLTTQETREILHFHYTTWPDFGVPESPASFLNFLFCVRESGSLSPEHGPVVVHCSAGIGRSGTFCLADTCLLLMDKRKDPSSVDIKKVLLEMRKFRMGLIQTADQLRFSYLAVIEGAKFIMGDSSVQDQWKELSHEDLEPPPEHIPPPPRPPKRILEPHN
Assay: crystal structure of tethered complex ([…] Å); mass-spectrometry tethering EC50 […]; pNPP inhibition Ki
Assay type: biochemical

Structure (SMILES): CN(C)CCSSCC(=O)Nc1cc(-c2ccc(F)cc2F)ccc1O [compound 2, 2]
- Ki: 7.1 ± 1.1 µM
